According to US4229204A, “Trifluoromethylphenyl isoxazolyl benzoates” (Monsanto Company, priority 1978, dated 1980):

Assays:
Type in all cases: in vivo
Crabgrass = assay: Pre-emergent herbicidal test; details: 4 WAT
Experimental: (§1) The pre-emergent test was conducted as follows:
(§2) A good grade of top soil was placed in aluminum pans and compacted to a depth of three-eighths to one-half inch from the top of the pan. On the top of the soil was placed a predetermined number of seeds or vegetative propagules of various plant species which were pressed into the soil surface. The soil required to level fill the pans after seeding or adding vegetative propagules was weighed into a pan. A known amount of the active ingredient applied in a solvent or as a wettable powder and the soil were thoroughly mixed, and used as a cover layer for prepared pans.
(§3) The herbicidal rating was obtained by means of a fixed scale based on the percent injury of each plant species. The ratings are defined as follows: […]

Hemp Sesbania = assay: Pre-emergent herbicidal test; details: 4 WAT
Experimental: as §1, §2, §3

Panicum Spp. = assay: Pre-emergent herbicidal test; details: 4 WAT
Experimental: as §1, §2, §3

Rice = assay: Pre-emergent herbicidal test; details: 4 WAT
Experimental: as §1, §2, §3

Sorghum = assay: Pre-emergent herbicidal test; details: 4 WAT
Experimental: as §1, §2, §3

Soybean = assay: Pre-emergent herbicidal test; details: 4 WAT
Experimental: as §1, §2, §3

Sugarbeet = assay: Pre-emergent herbicidal test; details: 4 WAT
Experimental: as §1, §2, §3

Wheat = assay: Pre-emergent herbicidal test; details: 4 WAT
Experimental: as §1, §2, §3

Wild Buckwheat = assay: Pre-emergent herbicidal test; details: 4 WAT
Experimental: as §1, §2, §3

Barnyardgrass [1] = assay: Pre-emergent herbicidal test
Experimental: as §1, §2, §3
(§4) The compounds were also tested by utilizing the above procedure on the following plant species: […]

Canada Thistle [2] = assay: Pre-emergent herbicidal test; details: 11.2 kg/h
Experimental: as §1, §2, §3, §4

Cocklebur [3] = assay: Pre-emergent herbicidal test
Experimental: as §1, §2, §3, §4

Downy Brome [4] = assay: Pre-emergent herbicidal test
Experimental: as §1, §2, §3, §4

Johnsongrass [5] = assay: Pre-emergent herbicidal test; details: 11.2 kg/h
Experimental: as §1, §2, §3, §4

Lambsquarters [6] = assay: Pre-emergent herbicidal test
Experimental: as §1, §2, §3, §4

Morningglory [7] = assay: Pre-emergent herbicidal test
Experimental: as §1, §2, §3, §4

Quackgrass [8] = assay: Pre-emergent herbicidal test; details: 11.2 kg/h
Experimental: as §1, §2, §3, §4

Smartweed [9] = assay: Pre-emergent herbicidal test
Experimental: as §1, §2, §3, §4

Velvetleaf [10] = assay: Pre-emergent herbicidal test
Experimental: as §1, §2, §3, §4

Yellow Nutsedge [11] = assay: Pre-emergent herbicidal test; details: 11.2 kg/h
Experimental: as §1, §2, §3, §4

Barnyardgrass [12] = assay: Post-emergent herbicidal test; details: 4 WAT, 11.2 kg/h
Experimental: (§5) The post-emergent tests were conducted as follows:
(§6) The active ingredients are applied in spray form to two or three week old specimens of various plant species. The spray, a solution or wettable powder suspension containing the appropriate rate of active ingredient to give the desired test rate and a surfactant, is applied to the plants.
as §4

Canada Thistle [13] = assay: Post-emergent herbicidal test; details: 4 WAT, 11.2 kg/h
Experimental: as §5, §6, §4

Cocklebur [14] = assay: Post-emergent herbicidal test; details: 4 WAT, 11.2 kg/h
Experimental: as §5, §6, §4

Downy Brome [15] = assay: Post-emergent herbicidal test; details: 4 WAT, 11.2 kg/h
Experimental: as §5, §6, §4

Johnsongrass [16] = assay: Post-emergent herbicidal test; details: 4 WAT, 11.2 kg/h
Experimental: as §5, §6, §4

Lambsquarters [17] = assay: Post-emergent herbicidal test; details: 4 WAT, 11.2 kg/h
Experimental: as §5, §6, §4

Morningglory [18] = assay: Post-emergent herbicidal test; details: 4 WAT, 11.2 kg/h
Experimental: as §5, §6, §4

Quackgrass [19] = assay: Post-emergent herbicidal test; details: 4 WAT, 11.2 kg/h
Experimental: as §5, §6, §4

Smartweed [20] = assay: Post-emergent herbicidal test; details: 4 WAT, 11.2 kg/h
Experimental: as §5, §6, §4

Velvetleaf [21] = assay: Post-emergent herbicidal test; details: 4 WAT, 11.2 kg/h
Experimental: as §5, §6, §4

Yellow Nutsedge [22] = assay: Post-emergent herbicidal test; details: 4 WAT, 11.2 kg/h
Experimental: as §5, §6, §4

Measured: herbicidal rating
Note: ranges in brackets are in %.

CCCCCOC(=O)c1ccccc1-c1cc(-c2cccc(C(F)(F)F)c2)no1 [Example 7, n-Pentyl 2-[3-[3-(Trifluoromethyl)Phenyl]-5-Isoxazolyl]Benzoate]
2 (50-74): Hemp Sesbania; 5.60 kg/h | Panicum Spp.; 5.60 kg/h | Rice; 1.12 kg/h | Sugarbeet; 1.12 kg/h | Sugarbeet; 5.60 kg/h | Wild Buckwheat; 1.12 kg/h | Wild Buckwheat; 5.60 kg/h | Barnyardgrass [1]; 4 WAT, 0.28 kg/h | Barnyardgrass [1]; 4 WAT, 1.12 kg/h | Downy Brome [4]; 4 WAT, 0.28 kg/h | Downy Brome [4]; 4 WAT, 5.60 kg/h | Lambsquarters [6]; 4 WAT, 1.12 kg/h | Lambsquarters [6]; 4 WAT, 5.60 kg/h | Morningglory [7]; 4 WAT, 1.12 kg/h | Morningglory [7]; 4 WAT, 5.60 kg/h | Quackgrass [8]; 4 WAT | Smartweed [9]; 4 WAT, 1.12 kg/h | Smartweed [9]; 4 WAT, 5.60 kg/h | Smartweed [9]; 4 WAT, 11.2 kg/h | Canada Thistle [13] | Cocklebur [14] | Johnsongrass [16] | Morningglory [18]
1 (25-49): Hemp Sesbania; 1.12 kg/h | Rice; 0.28 kg/h | Sorghum; 1.12 kg/h | Wheat; 1.12 kg/h | Wheat; 5.60 kg/h | Canada Thistle [2]; 4 WAT | Cocklebur [3]; 4 WAT, 5.60 kg/h | Cocklebur [3]; 4 WAT, 11.2 kg/h | Downy Brome [4]; 4 WAT, 1.12 kg/h | Downy Brome [4]; 4 WAT, 11.2 kg/h | Johnsongrass [5]; 4 WAT | Lambsquarters [6]; 4 WAT, 0.28 kg/h | Morningglory [7]; 4 WAT, 11.2 kg/h | Velvetleaf [10]; 4 WAT, 5.60 kg/h | Barnyardgrass [12] | Lambsquarters [17] | Smartweed [20] | Velvetleaf [21] | Yellow Nutsedge [22]
3 (75-100): Crabgrass; 5.60 kg/h | Rice; 5.60 kg/h | Sorghum; 5.60 kg/h | Soybean; 5.60 kg/h | Sugarbeet; 0.28 kg/h | Wild Buckwheat; 0.28 kg/h | Barnyardgrass [1]; 4 WAT, 5.60 kg/h | Barnyardgrass [1]; 4 WAT, 11.2 kg/h | Lambsquarters [6]; 4 WAT, 11.2 kg/h
0 (0-24): Crabgrass; 0.28 kg/h | Crabgrass; 1.12 kg/h | Hemp Sesbania; 0.28 kg/h | Panicum Spp.; 1.12 kg/h | Sorghum; 0.28 kg/h | Soybean; 0.28 kg/h | Soybean; 1.12 kg/h | Wheat; 0.28 kg/h | Cocklebur [3]; 4 WAT, 0.28 kg/h | Cocklebur [3]; 4 WAT, 1.12 kg/h | Morningglory [7]; 4 WAT, 0.28 kg/h | Smartweed [9]; 4 WAT, 0.28 kg/h | Velvetleaf [10]; 4 WAT, 0.28 kg/h | Velvetleaf [10]; 4 WAT, 1.12 kg/h | Velvetleaf [10]; 4 WAT, 11.2 kg/h | Yellow Nutsedge [11]; 4 WAT | Downy Brome [15] | Quackgrass [19]

CC(C)OC(=O)c1ccccc1-c1cc(-c2cccc(C(F)(F)F)c2)no1 [Example 8, Isopropyl 2-[3-[3-(Trifluoromethyl)Phenyl]-5-Isoxazolyl]Benzoate]
3 (75-100): Lambsquarters [6]; 2 WAT, 11.2 kg/h
0 (0-24): Barnyardgrass [1]; 2 WAT, 11.2 kg/h | Canada Thistle [2]; 2 WAT | Cocklebur [3]; 2 WAT, 11.2 kg/h | Downy Brome [4]; 2 WAT, 11.2 kg/h | Johnsongrass [5]; 2 WAT | Morningglory [7]; 2 WAT, 11.2 kg/h | Smartweed [9]; 2 WAT, 11.2 kg/h | Velvetleaf [10]; 2 WAT, 11.2 kg/h | Yellow Nutsedge [11]; 2 WAT | Canada Thistle [13] | Downy Brome [15] | Johnsongrass [16] | Quackgrass [19] | Velvetleaf [21] | Yellow Nutsedge [22]
2 (50-74): Lambsquarters [17] | Morningglory [18]
1 (25-49): Quackgrass [8]; 2 WAT | Barnyardgrass [12] | Cocklebur [14] | Smartweed [20]

O=C(O)c1ccccc1-c1cc(-c2cccc(C(F)(F)F)c2)no1 [Example 11, 2-[3-(3-Trifluoromethylphenyl)-5-Isoxazolyl]Benzoic Acid]
1 (25-49): Sorghum; 1.12 kg/h | Wheat; 5.60 kg/h | Cocklebur [3]; 4 WAT, 5.60 kg/h | Morningglory [7]; 4 WAT, 1.12 kg/h | Velvetleaf [10]; 4 WAT, 1.12 kg/h | Yellow Nutsedge [11]; 4 WAT | Canada Thistle [13] | Cocklebur [14] | Johnsongrass [16] | Morningglory [18] | Velvetleaf [21] | Yellow Nutsedge [22]
2 (50-74): Crabgrass; 1.12 kg/h | Hemp Sesbania; 5.60 kg/h | Panicum Spp.; 1.12 kg/h | Sugarbeet; 1.12 kg/h | Sugarbeet; 5.60 kg/h | Wild Buckwheat; 1.12 kg/h | Barnyardgrass [1]; 4 WAT, 5.60 kg/h | Downy Brome [4]; 4 WAT, 1.12 kg/h | Downy Brome [4]; 4 WAT, 5.60 kg/h | Lambsquarters [6]; 4 WAT, 1.12 kg/h | Lambsquarters [6]; 4 WAT, 11.2 kg/h | Morningglory [7]; 4 WAT, 5.60 kg/h | Morningglory [7]; 4 WAT, 11.2 kg/h | Smartweed [9]; 4 WAT, 1.12 kg/h | Velvetleaf [10]; 4 WAT, 5.60 kg/h | Barnyardgrass [12] | Downy Brome [15] | Lambsquarters [17] | Smartweed [20]
0 (0-24): Wheat; 1.12 kg/h | Cocklebur [3]; 4 WAT, 1.12 kg/h | Johnsongrass [5]; 4 WAT | Quackgrass [19]
3 (75-100): Crabgrass; 5.60 kg/h | Hemp Sesbania; 1.12 kg/h | Panicum Spp.; 5.60 kg/h | Rice; 1.12 kg/h | Rice; 5.60 kg/h | Sorghum; 5.60 kg/h | Soybean; 1.12 kg/h | Soybean; 5.60 kg/h | Wild Buckwheat; 5.60 kg/h | Barnyardgrass [1]; 4 WAT, 1.12 kg/h | Barnyardgrass [1]; 4 WAT, 11.2 kg/h | Canada Thistle [2]; 4 WAT | Cocklebur [3]; 4 WAT, 11.2 kg/h | Downy Brome [4]; 4 WAT, 11.2 kg/h | Lambsquarters [6]; 4 WAT, 5.60 kg/h | Quackgrass [8]; 4 WAT | Smartweed [9]; 4 WAT, 5.60 kg/h | Smartweed [9]; 4 WAT, 11.2 kg/h | Velvetleaf [10]; 4 WAT, 11.2 kg/h
